# Patent US20250276107A1, “HYDROGEL SYSTEMS AND METHODS FOR TREATING FISTULA AND OTHER INDICATIONS” (Terasaki Institute for Biomedical Innovation, priority 2024, published 2025)
# Test system: red blood cells (RBCs)
# Assay: Hemolysis test with diluted whole human blood
# Format: cell-based
# Details: 2 h, physiological temperature
# Procedure: In the development of bioadhesives, it is important to assess hemocompatibility to evaluate whether the materials damage the blood cells. For this purpose, a standard hemolysis test was performed by exposing crosslinked hydrogels to diluted sodium citrate-treated whole human blood for 2 h at physiological temperature. The presence of a toxic effect was assessed visually by observing the appearance of a red-colored supernatant after centrifugation, indicating the release of hemoglobin from ruptured red blood cells (RBCs). […] After incubation with hydrogels, intact RBCs were efficiently sedimented through centrifugation, similar to the saline negative control. […] The disruption of RBCs was further assessed through colorimetric analysis, with the calculated percent hemolysis induced by the hydrogels presented in FIG. 6A(II). The hemolysis level of the hydrogels at all tested PDA concentrations remained below the acceptable limit (≤5%).
substance,measurement,value
Triton X-100,supernatant colour after centrifugation (visual hemolysis),reddish supernatant
